Assay results reported in publication PMC2812670 (Experimental neurology, 2009).

Target: T1, MAO-A (Mus musculus, UniProt Q64133)
T1 sequence (Q64133 1-526): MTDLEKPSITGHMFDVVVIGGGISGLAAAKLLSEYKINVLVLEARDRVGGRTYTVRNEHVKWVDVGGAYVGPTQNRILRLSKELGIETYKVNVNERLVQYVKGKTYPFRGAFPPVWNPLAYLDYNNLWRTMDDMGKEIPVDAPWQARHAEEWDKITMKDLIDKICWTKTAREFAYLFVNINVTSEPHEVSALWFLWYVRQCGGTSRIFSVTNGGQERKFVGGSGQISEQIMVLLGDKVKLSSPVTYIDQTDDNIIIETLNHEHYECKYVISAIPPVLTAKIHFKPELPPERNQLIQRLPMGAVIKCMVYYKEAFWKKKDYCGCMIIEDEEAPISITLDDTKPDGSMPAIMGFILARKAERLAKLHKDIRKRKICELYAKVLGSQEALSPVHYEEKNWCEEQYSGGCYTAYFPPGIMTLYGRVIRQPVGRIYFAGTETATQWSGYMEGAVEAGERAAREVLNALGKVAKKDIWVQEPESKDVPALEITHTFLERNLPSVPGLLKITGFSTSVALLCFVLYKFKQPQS
Assay: Amplex Red MAO-A activity assay
Type: biochemical

C#CCN(C)CCCOc1ccc(Cl)cc1Cl [clorgyline]
Amplex Red MAO-A activity assay (tyramine substrate) in mouse brain homogenates,: 1 µM
